Columns and labels:
[1] = molecular target: T1, human IDO1 protein (Homo sapiens, UniProt P14902); test: Activity in HEK293 cells highly expressing human IDO1 protein; type: cell-based; details: HEK293-IDO cells, tryptophan 16 mg/L, 24 hours, absorption at 480 nm; read-out: IC50 (HEK293 cell)
T1 construct: expressed in transfected cells; host or cells: HEK293
Description: Example 2: Study on the Activity of the Present Invention in HEK293 Cells Highly Expressing Human IDO1 Protein
HEK293-IDO cells with high expression of human IDO1 protein were prepared by electrotransformation, and the cells were seeded in 96-well culture plates, and cultured at 37° C., 100% relative humidity, and 5% CO2 incubator for 24 hours. Dissolve in DMSO and dilute to the appropriate concentration, then use DMEM medium containing 10% fetal bovine serum to dilute the candidate 100-fold to the final concentration. Aspirate the old medium from the 96-well plate and add 200 μL of the medium contained in the previous step to each well. The content of tryptophan in the medium is 16 mg/L. The cells were placed in a 37° C., 100% relative humidity, and 5% CO2 incubator for 24 hours. 140 μL of the cell culture supernatant was mixed with 15 μL of trichloroacetic acid and placed at 52° C. for 30 min. Mix with an equal volume of Ehrlich's reagent, measure the light absorption at 480 nm, and calculate the IC50 values.

[2] = tested on: Hela cells; test: Activity in Hela cells (interferon-γ induced, kynurenine readout with Ehrlich's reagent); type: cell-based; details: Homo sapiens, interferon-γ 50 ng/mL, tryptophan 16 mg/L, 48 hours, absorption at 480 nm
Description: Example 1: Study on the Activity of the Compound of the Present Invention in Hela Cells
Hela cells were seeded in 96-well culture plates and incubated at 37° C., 100% relative humidity, 5% CO2 incubator for 24 hours. The compound was dissolved in DMSO and diluted to an appropriate concentration, and then the compound was diluted 100-fold with DMEM medium containing interferon-γ and 10% fetal bovine serum to the final concentration of effect. Aspirate the old medium from the 96-well plate and add 200 μL of each medium containing compound and interferon-γ from the previous step. The content of tryptophan in the medium is 16 mg/L, and the concentration of interferon-γ is 50 ng/mL. The cells were placed in a 37° C., 100% relative humidity, and 5% CO2 incubator for 48 hours, then 140 μL of the cell culture supernatant was mixed with 15 μL of trichloroacetic acid, and placed at 52° C. for 30 min, then centrifuged at room temperature to take the centrifugal supernatant. Mix with an equal volume of Ehrlich's reagent, measure the light absorption at 480 nm, and calculate the IC50 values.

T1 sequence (P14902 whole entry): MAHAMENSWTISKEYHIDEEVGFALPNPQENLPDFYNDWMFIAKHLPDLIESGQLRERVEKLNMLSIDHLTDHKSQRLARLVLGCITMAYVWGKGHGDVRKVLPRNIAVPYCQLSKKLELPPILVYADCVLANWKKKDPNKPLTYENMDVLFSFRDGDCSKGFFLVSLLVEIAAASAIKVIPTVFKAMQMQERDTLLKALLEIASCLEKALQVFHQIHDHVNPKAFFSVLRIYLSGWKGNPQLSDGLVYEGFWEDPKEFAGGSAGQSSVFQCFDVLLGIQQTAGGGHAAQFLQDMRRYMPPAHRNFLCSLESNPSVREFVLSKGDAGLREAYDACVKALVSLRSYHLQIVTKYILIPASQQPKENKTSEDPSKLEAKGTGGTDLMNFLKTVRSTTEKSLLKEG

SMILES | IC50 [1] [nM] | IC50 [2] [nM]
Cc1cc2nccc([C@H]3CC[C@@]4(CC3)C[C@@H]4C(=O)Nc3ccc(Cl)cc3)c2cc1F (single isomer, unassigned) [Compound 92] | 0.1 to 10 | 0.1 to 10
Cc1cc2nccc([C@H]3CC[C@@]4(CC3)C[C@H]4C(=O)Nc3ccc(Cl)cc3)c2cc1F (single isomer, unassigned) [Compound 93] | > 100 | > 100
COCCOc1ccc(NC(=O)[C@H]2C[C@]23CC[C@H](c2ccnc4cc(C)c(F)cc42)CC3)cc1 (single isomer, unassigned) [Compound 98] | 0.1 to 10 | 0.1 to 10
COCCOc1ccc(NC(=O)[C@@H]2C[C@]23CC[C@H](c2ccnc4cc(C)c(F)cc42)CC3)cc1 (single isomer, unassigned) [Compound 99] | > 100 | > 100
COc1cc2nccc([C@H]3CC[C@@]4(CC3)C[C@@H]4C(=O)Nc3ccc(Cl)cc3)c2cc1F (single isomer, unassigned) [Compound 108] | 0.1 to 10 | 0.1 to 10
COc1cc2nccc([C@H]3CC[C@@]4(CC3)C[C@H]4C(=O)Nc3ccc(Cl)cc3)c2cc1F (single isomer, unassigned) [Compound 109] | > 100 | > 100
O=C(NCc1ccc(Cl)cc1)C1CC12CCC(c1ccnc3ccc(F)cc13)CC2 (stereo not shown) [Compound 3, N-(4-chlorobenzyl)-6-(6-fluoroquinolin-4-yl)spiro[2.5]octane-1-carboxamide] | > 100 | > 100
O=C(NCCc1ccc(Cl)cc1)C1CC12CCC(c1ccnc3ccc(F)cc13)CC2 (stereo not shown) [Compound 4, N-(4-chlorophenethyl)-6-(6-fluoroquinolin-4-yl)spiro[2.5]octane-1-carboxamide] | > 100 | > 100
O=C(Nc1ccc(Cl)cn1)C1CC12CCC(c1ccnc3ccc(F)cc13)CC2 (stereo not shown) [Compound 8, N-(5-chloropyridin-2-yl)-6-(6-fluoroquinolin-4-yl)spiro[2.5]octane-1-carboxamide] | 10 to 100 | 10 to 100
Cc1cc2nccc(C3CCC4(CC3)CC4C(=O)Nc3ccc(Cl)cc3)c2cc1F (stereo not shown) [Compound 9, N-(4-chlorophenyl)-6-(6-fluoro-7-methylquinolin-4-yl)spiro[2.5]octane-1-carboxamide] | 0.1 to 10 | 0.1 to 10
O=S(=O)(Nc1ccc(Cl)cc1)C1CC12CCC(c1ccnc3ccc(F)cc13)CC2 (stereo not shown) [Compound 14, N-(4-chlorophenyl)-6-(6-fluoroquinolin-4-yl)spiro[2.5]octane-1-sulfonamide] | – | 0.1 to 10
O=S(=O)(Nc1ccc(F)cc1)C1CC12CCC(c1ccnc3ccc(F)cc13)CC2 (stereo not shown) [Compound 15] | – | 0.1 to 10
O=S(=O)(Nc1ccc(C(F)(F)F)cc1)C1CC12CCC(c1ccnc3ccc(F)cc13)CC2 (stereo not shown) [Compound 16] | – | 0.1 to 10
COc1ccc(NS(=O)(=O)C2CC23CCC(c2ccnc4ccc(F)cc24)CC3)cc1 (stereo not shown) [Compound 17] | – | 0.1 to 10
Cc1ccc(NS(=O)(=O)C2CC23CCC(c2ccnc4ccc(F)cc24)CC3)cc1 (stereo not shown) [Compound 18] | – | 0.1 to 10
N#Cc1ccc(NS(=O)(=O)C2CC23CCC(c2ccnc4ccc(F)cc24)CC3)cc1 (stereo not shown) [Compound 19] | – | 0.1 to 10
O=C(Nc1ccc(C(F)(F)F)cc1)C1COC12CCC(c1ccnc3ccc(F)cc13)CC2 (stereo not shown) [Compound 52] | – | 10 to 100
Cc1cc2nccc(C3CCC4(CC3)CC4C(=O)Nc3ccc(F)cc3)c2cc1F (stereo not shown) [Compound 80, 6-(6-fluoro-7-methylquinolin-4-yl)-N-(4-fluorophenyl)spiro[2.5]octane-1-carboxamide] | – | 0.1 to 10
Cc1cc2nccc(C3CCC4(CC3)CC4C(=O)Nc3ccc(C#N)cc3)c2cc1F (stereo not shown) [Compound 81] | – | 0.1 to 10
Cc1cc2nccc(C3CCC4(CC3)CC4C(=O)Nc3ccc(C(F)(F)F)cc3)c2cc1F (stereo not shown) [Compound 82] | – | 0.1 to 10
Cc1ccc(NC(=O)C2CC23CCC(c2ccnc4cc(C)c(F)cc24)CC3)cc1 (stereo not shown) [Compound 83] | – | 0.1 to 10
COc1ccc(NC(=O)C2CC23CCC(c2ccnc4cc(C)c(F)cc24)CC3)cc1 (stereo not shown) [Compound 84] | – | 0.1 to 10
Cc1cc2nccc(C3CCC4(CC3)CC4C(=O)Nc3ccc(Cl)c(F)c3)c2cc1F (stereo not shown) [Compound 86] | – | 0.1 to 10
COCc1cc2nccc(C3CCC4(CC3)CC4C(=O)Nc3ccc(Cl)cc3)c2cc1F (stereo not shown) [Compound 115, N-(4-chlorophenyl)-6-(6-fluoro-7-(methoxymethyl)quinolin-4-yl)spiro[2.5]octane-1-carb oxamide] | – | 0.1 to 10

The next lines start with the values.

IC50 [1] [nM] | IC50 [2] [nM] | SMILES
0.1 to 10 | 0.1 to 10 | O=C(Nc1ccc(Cl)cc1)[C@H]1CC12CCC(c1ccnc3ccc(F)cc13)CC2 (single isomer, unassigned) [Compound 10a]
> 100 | > 100 | O=C(Nc1ccc(Cl)cc1)[C@@H]1CC12CCC(c1ccnc3ccc(F)cc13)CC2 (single isomer, unassigned) [Compound 10b]
10 to 100 | 0.1 to 10 | O=C(Nc1ccc(Cl)cc1)C1CC12CCC(c1ccnc3ccc(F)cc13)CC2 (stereo not shown) [Compound 1, N-(4-chlorophenyl)-6-(6-fluoroquinolin-4-yl)spiro[2.5]octane-1-carboxamide]
10 to 100 | 10 to 100 | O=C(Nc1ccc(F)cc1)C1CC12CCC(c1ccnc3ccc(F)cc13)CC2 (stereo not shown) [Compound 2, N-(4-fluorophenyl)-6-(6-fluoroquinolin-4-yl)spiro[2.5]octane-1-carboxamide]
10 to 100 | > 100 | O=C(Nc1ccc(C(F)(F)F)cc1)C1CC12CCC(c1ccnc3ccc(F)cc13)CC2 (stereo not shown) [Compound 5, 6-(6-fluoroquinolin-4-yl)-N-(4-(trifluoromethyl)phenyl)spiro[2.5]octane-1-carboxamide]
10 to 100 | 10 to 100 | N#Cc1ccc(NC(=O)C2CC23CCC(c2ccnc4ccc(F)cc24)CC3)cc1 (stereo not shown) [Compound 6, N-(4-cyanophenyl)-6-(6-fluoroquinolin-4-yl)spiro[2.5]octane-1-carboxamide]
10 to 100 | 10 to 100 | O=C(Nc1ccc(Cl)nc1)C1CC12CCC(c1ccnc3ccc(F)cc13)CC2 (stereo not shown) [Compound 7, N-(6-chloropyridin-3-yl)-6-(6-fluoroquinolin-4-yl)spiro[2.5]octane-1-carboxamide]
10 to 100 | 0.1 to 10 | O=C(Nc1ccc(Br)cc1)C1CC12CCC(c1ccnc3ccc(F)cc13)CC2 (stereo not shown) [Compound 11, N-(4-bromophenyl)-6-(6-fluoroquinolin-4-yl)spiro[2.5]octane-1-carboxamide]
10 to 100 | 10 to 100 | O=C(Nc1ccc(Cl)c(F)c1)C1CC12CCC(c1ccnc3ccc(F)cc13)CC2 (stereo not shown) [Compound 12, N-(4-chloro-3-fluorophenyl)-6-(6-fluoroquinolin-4-yl)spiro[2.5]octane-1-carboxamide]
– | > 100 | Cc1ccc(NC(=O)N2CC23CCC(c2ccnc4ccc(F)cc24)CC3)cc1 (stereo not shown) [Compound 24]
– | 10 to 100 | O=C(Nc1ccc(Cl)cc1)C1COC12CCC(c1ccnc3ccc(F)cc13)CC2 (stereo not shown) [Compound 50, N-(4-chlorophenyl)-7-(6-fluoroquinolin-4-yl)-1-oxaspiro[3.5]nonane-3-carboxamide]
– | 10 to 100 | O=C(Nc1ccc(F)cc1)C1COC12CCC(c1ccnc3ccc(F)cc13)CC2 (stereo not shown) [Compound 51]
– | 10 to 100 | COc1ccc(NC(=O)C2COC23CCC(c2ccnc4ccc(F)cc24)CC3)cc1 (stereo not shown) [Compound 53]
– | 10 to 100 | Cc1ccc(NC(=O)C2COC23CCC(c2ccnc4ccc(F)cc24)CC3)cc1 (stereo not shown) [Compound 54]
– | 10 to 100 | N#Cc1ccc(NC(=O)C2COC23CCC(c2ccnc4ccc(F)cc24)CC3)cc1 (stereo not shown) [Compound 55]
– | 0.1 to 10 | Cc1cc2nccc(C3CCC4(CC3)CC4C(=O)Nc3ccc(Br)cc3)c2cc1F (stereo not shown) [Compound 85]
– | > 100 | CN1CC(C(=O)Nc2ccc(Cl)cc2)C2(CCC(c3ccnc4ccc(F)cc34)CC2)C1 (stereo not shown) [Compound 87, N-(4-chlorophenyl)-8-(6-fluoroquinolin-4-yl)-2-methyl-2-azaspiro[4.5]decane-4-carboxamide]
– | > 100 | CN1CC(C(=O)Nc2ccc(F)cc2)C2(CCC(c3ccnc4ccc(F)cc34)CC2)C1 (stereo not shown) [Compound 88]
– | > 100 | CN1CC(C(=O)Nc2ccc(C(F)(F)F)cc2)C2(CCC(c3ccnc4ccc(F)cc34)CC2)C1 (stereo not shown) [Compound 89]
– | > 100 | CN1CC(C(=O)Nc2ccc(Br)cc2)C2(CCC(c3ccnc4ccc(F)cc34)CC2)C1 (stereo not shown) [Compound 90]
– | > 100 | CN1CC(C(=O)Nc2ccc(C#N)cc2)C2(CCC(c3ccnc4ccc(F)cc34)CC2)C1 (stereo not shown) [Compound 91]

From patent publication US11111230B2 (ADLAI NORTYE BIOPHARMA CO., LTD., priority 2017, dated 2021)
